Laboratory results reported in paper PMC8878748, “Broad-Spectrum Antiviral Activity of the Amphibian Antimicrobial Peptide Temporin L and Its Analogs” (International Journal of Molecular Sciences, 2022).
Where a SMILES comes first, the peptide text is derived from it. [ ]: non-standard residue; d: D form. The star is where a group is joined. X1 = CC(C)CCC[C@@H](C)[C@H]1CC[C@H]2[C@@H]3CC=C4C[C@@H](OC(=O)CCOCCOCCOCCOCCNC(=O)C*)CC[C@]4(C)[C@H]3CC[C@]12C; Pentadecanoyl = CCCCCCCCCCCCCCC(=O)*; Palmitoyl = CCCCCCCCCCCCCCCC(=O)*; Hyp = O=C(O)[C@@H]1C[C@@H](O)CN1; Tridecanoyl = CCCCCCCCCCCCC(=O)*; dNle = CCCC[C@@H](N)C(=O)O; Nle = CCCC[C@H](N)C(=O)O

Columns and labels:
[1] = tested on: influenza virus (subtype H1N1); details: influenza virus (subtype, 2 h)
MeV = details: 2 h
[2] = Table 2; cited from earlier work
[3] = MTT cytotoxicity assay on Vero cells; type: cell-based; details: MTT; for CC50: calculated after 2 h of peptide treatment; for viability: 2 h, concentrations below 25 μM, read-out: viable cells
HPIV-3 = details: 2 h

| Structure (SMILES) | IC50 [1] [µM] | IC90 [1] [µM] | IC50 (MeV) [µM] | IC90 (MeV) [µM] | %Helix in DPC [2] [%] | CC50 [3] [µM] | viability [3] [%] | IC50 (HPIV-3) [µM] | IC90 (HPIV-3) [µM] |
| --- | --- | --- | --- | --- | --- | --- | --- | --- | --- |
| CC[C@H](C)[C@H](NC(=O)[C@H](CCCNC(=N)N)NC(=O)[C@@H]1CCCN1C(=O)[C@@H](CC(C)C)NC(=O)[C@H](Cc1ccccc1)NC(=O)[C@H](CCCCN)NC(=O)[C@H](CO)NC(=O)[C@H](Cc1ccccc1)NC(=O)[C@H](Cc1c[nH]c2ccccc12)NC(=O)[C@@H]1CCCN1C(=O)[C@@H](NC(=O)[C@@H](N)Cc1ccccc1)C(C)C)C(=O)N[C@@H](CC(C)C)C(N)=O [TL2, H-Phe-Val-Pro-Trp-Phe-Ser-Lys-Phe-DLeu-Pro-Arg-Ile-Leu-NH2] (H-FVPWFSKF[dL]PRIL-NH2) | 12 | 21.3 | > 50 | > 50 | 15 | 56.5 | – | – | – |
| CCCCCCCCCCCCCCCC(=O)N[C@@H](Cc1ccccc1)C(=O)N[C@H](C(=O)N1CCC[C@H]1C(=O)N[C@@H](Cc1c[nH]c2ccccc12)C(=O)N[C@@H](Cc1ccccc1)C(=O)N[C@@H](CO)C(=O)N[C@@H](CCCCN)C(=O)N[C@@H](Cc1ccccc1)C(=O)N[C@H](CC(C)C)C(=O)N[C@@H](CCCC)C(=O)N[C@@H](CCCNC(=N)N)C(=O)N[C@H](C(=O)N[C@@H](CC(C)C)C(N)=O)[C@@H](C)CC)C(C)C [TL6.8, H-Palmitic acid-Phe-Val-Pro-Trp-Phe-Ser-Lys-Phe-DLeu-Nle-Arg-Ile-Leu-NH2] (Palmitoyl-FVPWFSKF[dL][Nle]RIL-NH2) | 4.77 | 7.11 | 39.4 | > 50 | – | > 100 | – | – | – |
| CCCC[C@H](NC(=O)[C@@H](CC(C)C)NC(=O)[C@H](Cc1ccccc1)NC(=O)[C@H](CCCCN)NC(=O)[C@H](CO)NC(=O)[C@H](Cc1ccccc1)NC(=O)[C@H](Cc1c[nH]c2ccccc12)NC(=O)[C@@H]1CCCN1C(=O)[C@@H](NC(=O)[C@@H](N)Cc1ccccc1)C(C)C)C(=O)N[C@@H](CCCNC(=N)N)C(=O)N[C@H](C(=O)N[C@@H](CC(C)C)C(=O)N[C@@H](CSCC(=O)NCCOCCOCCOCCOCCC(=O)O[C@H]1CC[C@@]2(C)C(=CC[C@H]3[C@@H]4CC[C@H]([C@H](C)CCCC(C)C)[C@@]4(C)CC[C@@H]32)C1)C(N)=O)[C@@H](C)CC [TL6.1, H-Phe-Val-Pro-Trp-Phe-Ser-Lys-Phe-DLeu-Nle-Arg-Ile-Leu-Cys-[PEG4-Cholesterol]-NH2] (H-FVPWFSKF[dL][Nle]RILC(X1)-NH2) | 5.55 | 10 | 39.1 | > 50 | – | > 100 | – | – | – |
| CCCCCCCCCCCCC(=O)N[C@@H](Cc1ccccc1)C(=O)N[C@H](C(=O)N1CCC[C@H]1C(=O)N[C@@H](Cc1c[nH]c2ccccc12)C(=O)N[C@@H](Cc1ccccc1)C(=O)N[C@@H](CO)C(=O)N[C@@H](CCCCN)C(=O)N[C@@H](Cc1ccccc1)C(=O)N[C@H](CC(C)C)C(=O)N[C@@H](CCCC)C(=O)N[C@@H](CCCNC(=N)N)C(=O)N[C@H](C(=O)N[C@@H](CC(C)C)C(N)=O)[C@@H](C)CC)C(C)C [TL6.6, H-Tridecanoic acid-Phe-Val-Pro-Trp-Phe-Ser-Lys-Phe-DLeu-Nle-Arg-Ile-Leu-NH2] (Tridecanoyl-FVPWFSKF[dL][Nle]RIL-NH2) | 3.39 | 6.66 | 33.4 | > 50 | – | > 100 | – | – | – |
| CC[C@H](C)[C@H](NC(=O)[C@H](CCCNC(=N)N)NC(=O)[C@@H](CCCCN)NC(=O)[C@@H](CC(C)C)NC(=O)[C@H](Cc1ccccc1)NC(=O)[C@H](CCCCN)NC(=O)[C@H](CO)NC(=O)[C@H](Cc1ccccc1)NC(=O)[C@H](Cc1c[nH]c2ccccc12)NC(=O)[C@@H]1CCCN1C(=O)[C@@H](NC(=O)[C@@H](N)Cc1ccccc1)C(C)C)C(=O)N[C@@H](CC(C)C)C(N)=O [TL9, H-Phe-Val-Pro-Trp-Phe-Ser-Lys-Phe-DLeu-DLys-Arg-Ile-Leu-NH2] (H-FVPWFSKF[dL][dK]RIL-NH2) | 3.44 | 11.2 | 45 | > 50 | 30 | 45.9 | > 65 | – | – |
| CC[C@H](C)[C@H](NC(=O)[C@H](CCCNC(=N)N)NC(=O)[C@H](Cc1c[nH]c2ccccc12)NC(=O)[C@@H](CC(C)C)NC(=O)[C@H](Cc1ccccc1)NC(=O)[C@H](CCCCN)NC(=O)[C@H](CO)NC(=O)[C@H](Cc1ccccc1)NC(=O)[C@H](Cc1c[nH]c2ccccc12)NC(=O)[C@@H]1CCCN1C(=O)[C@@H](NC(=O)[C@@H](N)Cc1ccccc1)C(C)C)C(=O)N[C@@H](CC(C)C)C(N)=O [TL10, H-Phe-Val-Pro-Trp-Phe-Ser-Lys-Phe-DLeu-Trp-Arg-Ile-Leu-NH2] (H-FVPWFSKF[dL]WRIL-NH2) | 3.79 | 12.1 | 42.8 | > 50 | 50 | 35.5 | > 65 | – | – |
| CC[C@H](C)[C@H](NC(=O)[C@H](CCCNC(=N)N)NC(=O)[C@@H]1C[C@@H](O)CN1C(=O)[C@@H](CC(C)C)NC(=O)[C@H](Cc1ccccc1)NC(=O)[C@H](CCCCN)NC(=O)[C@H](CO)NC(=O)[C@H](Cc1ccccc1)NC(=O)[C@H](Cc1c[nH]c2ccccc12)NC(=O)[C@@H]1CCCN1C(=O)[C@@H](NC(=O)[C@@H](N)Cc1ccccc1)C(C)C)C(=O)N[C@@H](CC(C)C)C(N)=O [TL4, H-Phe-Val-Pro-Trp-Phe-Ser-Lys-Phe-DLeu-Hyp-Arg-Ile-Leu-NH2] (H-FVPWFSKF[dL][Hyp]RIL-NH2) | 16.3 | 31.7 | > 50 | > 50 | 18 | 60.2 | – | > 50 | > 50 |
| CCCC[C@@H](NC(=O)[C@@H](CC(C)C)NC(=O)[C@H](Cc1ccccc1)NC(=O)[C@H](CCCCN)NC(=O)[C@H](CO)NC(=O)[C@H](Cc1ccccc1)NC(=O)[C@H](Cc1c[nH]c2ccccc12)NC(=O)[C@@H]1CCCN1C(=O)[C@@H](NC(=O)[C@@H](N)Cc1ccccc1)C(C)C)C(=O)N[C@@H](CCCNC(=N)N)C(=O)N[C@H](C(=O)N[C@@H](CC(C)C)C(N)=O)[C@@H](C)CC [TL7, H-Phe-Val-Pro-Trp-Phe-Ser-Lys-Phe-DLeu-DNle-Arg-Ile-Leu-NH2] (H-FVPWFSKF[dL][dNle]RIL-NH2) | 4.45 | 13.5 | > 50 | > 50 | 30 | 32.2 | – | > 50 | > 50 |
| CCCCCCCCCCCCCCC(=O)N[C@@H](Cc1ccccc1)C(=O)N[C@H](C(=O)N1CCC[C@H]1C(=O)N[C@@H](Cc1c[nH]c2ccccc12)C(=O)N[C@@H](Cc1ccccc1)C(=O)N[C@@H](CO)C(=O)N[C@@H](CCCCN)C(=O)N[C@@H](Cc1ccccc1)C(=O)N[C@H](CC(C)C)C(=O)N[C@@H](CCCC)C(=O)N[C@@H](CCCNC(=N)N)C(=O)N[C@H](C(=O)N[C@@H](CC(C)C)C(N)=O)[C@@H](C)CC)C(C)C [TL6.7, H-Pentadecanoic acid-Phe-Val-Pro-Trp-Phe-Ser-Lys-Phe-DLeu-Nle-Arg-Ile-Leu-NH2] (Pentadecanoyl-FVPWFSKF[dL][Nle]RIL-NH2) | 3.48 | 8.1 | 37.8 | > 50 | – | > 100 | – | – | – |
| CC[C@H](C)[C@H](NC(=O)[C@H](CCCNC(=N)N)NC(=O)[C@H](CCCCN)NC(=O)[C@@H](CC(C)C)NC(=O)[C@H](Cc1ccccc1)NC(=O)[C@H](CCCCN)NC(=O)[C@H](CO)NC(=O)[C@H](Cc1ccccc1)NC(=O)[C@H](Cc1c[nH]c2ccccc12)NC(=O)[C@@H]1CCCN1C(=O)[C@@H](NC(=O)[C@@H](N)Cc1ccccc1)C(C)C)C(=O)N[C@@H](CC(C)C)C(N)=O [TL8, H-Phe-Val-Pro-Trp-Phe-Ser-Lys-Phe-DLeu-Lys-Arg-Ile-Leu-NH2] (H-FVPWFSKF[dL]KRIL-NH2) | 3.4 | 9.78 | 37.1 | > 50 | 61 | 22.3 | – | – | – |
| CC[C@H](C)[C@H](NC(=O)[C@H](CCCNC(=N)N)NC(=O)[C@H]1CCCN1C(=O)[C@@H](CC(C)C)NC(=O)[C@H](Cc1ccccc1)NC(=O)[C@H](CCCCN)NC(=O)[C@H](CO)NC(=O)[C@H](Cc1ccccc1)NC(=O)[C@H](Cc1c[nH]c2ccccc12)NC(=O)[C@@H]1CCCN1C(=O)[C@@H](NC(=O)[C@@H](N)Cc1ccccc1)C(C)C)C(=O)N[C@@H](CC(C)C)C(N)=O [TL3, H-Phe-Val-Pro-Trp-Phe-Ser-Lys-Phe-DLeu-DPro-Arg-Ile-Leu-NH2] (H-FVPWFSKF[dL][dP]RIL-NH2) | > 50 | > 50 | > 50 | > 50 | 8 | > 100 | – | – | – |
| CC[C@H](C)[C@H](NC(=O)[C@H](CCCNC(=N)N)NC(=O)[C@@H](Cc1c[nH]c2ccccc12)NC(=O)[C@@H](CC(C)C)NC(=O)[C@H](Cc1ccccc1)NC(=O)[C@H](CCCCN)NC(=O)[C@H](CO)NC(=O)[C@H](Cc1ccccc1)NC(=O)[C@H](Cc1c[nH]c2ccccc12)NC(=O)[C@@H]1CCCN1C(=O)[C@@H](NC(=O)[C@@H](N)Cc1ccccc1)C(C)C)C(=O)N[C@@H](CC(C)C)C(N)=O [TL11, H-Phe-Val-Pro-Trp-Phe-Ser-Lys-Phe-DLeu-DTrp-Arg-Ile-Leu-NH2] (H-FVPWFSKF[dL][dW]RIL-NH2) | 3.05 | 9.77 | 43.2 | > 50 | 40 | 24.1 | – | – | – |
